One data set addresses β-amyloid deposits. Conditions: values from cited documents; read-out: binding affinity (Ki); cited from earlier work.
Data set [1] deals with T1, β-amyloid (Aβ1-42) fibrils (Homo sapiens, UniProt P05067).
T1 construct: β-Amyloid peptide (Aβ1-42, 1 mg, Bachem); purchased Bachem
Put plainly: Inhibitory binding assay against [125I]TZDM on β-amyloid (Aβ1-42) fibrils. As to conditions: Aβ1-42 fibrils 10 nM, [125I]TZDM 0.05 nM, 10% ethanol, room temperature 3 hours, nonspecific binding with 2 μM ThT; read-out: Ki, relative binding affinity to [125I]TZDM (112). On the procedure:
(§1) β-Amyloid peptide (Aβ1-42, 1 mg, Bachem) was completely dissolved in 1 mL of DMSO, 9 mL of phosphate buffered saline (PBS) (pH 7.4) was added thereto and well mixed. The resulting mixture was incubated at 37° C. for 60 minutes to form β-amyloid fibrils, 0.5 mL was taken and transferred to each e-tube and placed into a refrigerator maintained at −80° C.
To determine whether β-amyloid peptide was properly formed into β-amyloid fibrils, 150 μL of 5 μM Thioflavin T (ThT) was added to 50 μL of incubated β-amyloid fibrils, the fluorescence intensity of ThT binding specifically to β-amyloid fibrils at excitation/emission wavelengths (λex/λem), e.g., 450 nm/480 nm, was detected using a spectrometer.
0.850 mL of 10% Ethanol was placed into 12 mm×75 mm borosilicate test tubes, and 50 μL of β-amyloid (Aβ1-42) fibrils were added such that the final reaction concentration became 10 nM. […] Here, the nonspecific binding was performed using 2 μM Thioflavin T (ThT).

The target of data set [2] is T1, β-amyloid (Aβ1-42) fibrils. Put plainly: Dissociation constant (Kd) of [125I]TZDM on β-amyloid fibrils. Conditions: Aβ1-42 fibrils 10 nM, 10% ethanol, room temperature 3 hours, nonspecific binding with 2 μM ThT. The procedure: as §1
Here, the nonspecific binding was performed using 2 μM Thioflavin T (ThT).

T1 sequence (P05067 672-713 limits assumed): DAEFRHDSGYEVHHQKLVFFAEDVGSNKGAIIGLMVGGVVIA

A word on the Ki: it is a dissociation constant, usually derived from enzyme kinetics or from competition with a known ligand. Consider `CN(C)c1ccc(-c2cn3cc(I)ccc3n2)cc1` [[^123I/^125I]IMPY], for which the Ki on β-amyloid deposits is 15 nM.

In general, melting point refers to the temperature of the solid-liquid transition. `CNc1ccc(-c2cc3ccc(OCCCF)cc3s2)cc1` [Example 13, 2-[4-(N-monomethylamino)phenyl]-6-(3-fluoropropoxy)benzothiophene]: the melting point fell in the range of 121.4 to 123.1 °C. Moreover, in data set [1], the Ki came to 0.27 nM. In the case of `CNc1ccnc(-c2cc3ccc(OCCF)cc3s2)n1` [Example 41, 2-[4-(N-monomethylamino)pyrimidine-2-yl]-6-(2-fluoroethoxy)benzothiophene], in data set [1], the Ki came to 0.53 nM.

Take `CNc1ccc(-c2cc3ccc(OCCF)cc3s2)cn1` [Example 22, 2-[2-(N-monomethylamino)pyridine-5-yl]-6-(2-fluoroethoxy)benzothiophene]: in data set [1], the inhibition constant (Ki) worked out at 0.46 nM. With `CN(C)c1ccc(-c2cc3ccc(OCCF)cc3s2)nn1` [Example 49, 2-[3-(N,N-dimethylamino)pyridazine-6-yl]-6-(2-fluoroethoxy)benzothiophene], in data set [1], the inhibitory constant (Ki) was 0.43 nM. `COc1ccc2cc(-c3ccc(OCCCF)nc3)sc2c1` [Example 19, 2-[2-(3-fluoropropoxy)pyridine-5-yl]-6-methoxybenzothiophene]: in data set [1], the Ki came to 0.39 nM. For the molecule `COc1ccc2cc(-c3ccc(OCCCF)nn3)sc2c1` [Example 45, 2-[3-(3-fluoropropoxy)pyridazine-6-yl]-6-methoxybenzothiophene], the inhibition constant (Ki) in data set [1] turned out to be 1 nM. Turning to `COc1cccc2sc(-c3ccc(N(C)C)cc3)cc12` [Example 14, 2-[4-(N,N-dimethylamino)phenyl]-4-methoxybenzothiophene], in data set [1], the inhibition constant (Ki) was determined as 0.77 nM.

For the molecule `COc1nccc(-c2cc3ccc(OCCCF)cc3s2)n1` [Example 37, 2-(2-methoxypyrimidine-4-yl)-6-(3-fluoropropoxy)benzothiophene], the inhibition constant (Ki) in data set [1] came out at 0.44 nM. For the molecule `[11CH3]Nc1ccc(-c2nc3ccc(O)cc3s2)cc1` [Control Group], the Ki at β-amyloid deposits is 2.8 nM. On to `CN(C)c1ccc(-c2cc3ccc(OCCCF)cc3s2)cn1` [Example 26, 2-[2-(N,N-dimethylamino)pyridine-5-yl]-6-(3-fluoropropoxy)benzothiophene], for which the inhibitory constant (Ki) in data set [1] came out at 0.09 nM. Take `CNc1ccc(-c2cc3ccc(OCCCF)cc3s2)cn1` [Example 25, 2-[2-(N-monomethylamino)pyridine-5-yl]-6-(3-fluoropropoxy)benzothiophene]: in data set [1], the Ki was 0.06 nM. With `CNc1ccc(-c2cc3ccc(OCCCF)cc3s2)nn1` [Example 52, 2-[3-(N-monomethylamino)pyridazine-6-yl]-6-(3-fluoropropoxy)benzothiophene], the inhibitory constant (Ki) in data set [1] was 0.55 nM. Turning to `CNc1ccc(-c2cc3ccc(OC)cc3s2)cc1` [Example 11, 2-[4-(N-monomethylamino)phenyl]-6-methoxybenzothiophene], the inhibitory constant (Ki) in data set [1] is 0.43 nM. In turn, `O=[N+]([O-])c1ccc(-c2cc3ccc(O)cc3s2)cc1` [Example 4, 2-(4-nitrophenyl)-6-hydroxybenzothiophene] had a melting point of 265 to 265.2 °C. In addition, the inhibitory constant (Ki) in data set [1] was determined as 1.07 nM. For the molecule `COc1ccc2cc(-c3ccc([N+](=O)[O-])cc3)sc2c1` [Example 3, 2-(4-nitrophenyl)-6-methoxybenzothiophene], in data set [1], the inhibition constant Ki amounted to 2.3 nM. Turning to `CN(C)c1ccc(-c2cc3ccc(OCCF)cc3s2)cc1` [Example 16, 2-[4-(N,N-dimethylamino)phenyl]-6-(2-fluoroethoxy)benzothiophene], the melting point lay in the range of 183.9 to 195.9 °C. For the same molecule, the Ki in data set [1] was found to be 0.079 nM. On to `CN(C)c1ccc(-c2cc3ccc(OCCCF)cc3s2)cc1` [Example 17, 2-[4-(N,N-dimethylamino)phenyl]-6-(3-fluoropropoxy)benzothiophene], for which the melting point is 177.7 to 183 °C. Also, in data set [1], the Ki was 7.41 nM. With `COc1ccc2cc(-c3ccc(N)cc3)sc2c1` [Example 8, 2-(4-aminophenyl)-6-methoxybenzothiophene], the Ki in data set [1] amounted to 0.51 nM. Regarding `Nc1ccc(-c2cc3ccc(OCCF)cc3s2)cn1` [Example 21, 2-(2-aminopyridine-5-yl)-6-(2-fluoroethoxy)benzothiophene], the Ki in data set [1] came to 1.11 nM. The same measure, in the same setting: in the case of `COc1ccc2cc(-c3cccc([N+](=O)[O-])c3)sc2c1` [Example 2, 2-(3-nitrophenyl)-6-methoxybenzothiophene] it was 0.65 nM. `CC(=C(C#N)C#N)c1ccc2cc(N(C)CCF)ccc2c1` [[^18F]FDDNP]: the Ki at β-amyloid deposits is 0.12 nM. As usually defined, the Kd is a measure of binding affinity in units of concentration. A lower Kd goes with higher affinity. On to `CN(C)c1ccc(-c2nc3ccc([125I])cc3s2)cc1` [[^125I]TZDM, 2-[4-(N,N-dimethylamino)phenyl]-6-[^125I]iodobenzothiazole], for which binding in data set [2] was characterised by a dissociation constant (Kd) of 0.13 nM. Consider `CN(C)c1ccc(-c2cc3ccc(OCCCF)cc3s2)nn1` [Example 53, 2-[3-(N,N-dimethylamino)pyridazine-6-yl]-6-(3-fluoropropoxy)benzothiophene], for which, in data set [1], the inhibition constant (Ki) came to 0.65 nM. Regarding `COc1ccc2cc(-c3ccnc(NCCF)n3)sc2c1` [Example 33, 2-[2-(N-(2-fluoroethyl)amino)pyrimidine-4-yl]-6-methoxybenzothiophene], the inhibitory constant (Ki) in data set [1] is 0.53 nM. In the case of `COc1ccc2cc(-c3cncc(OCCCF)n3)sc2c1` [Example 55, 2-[2-(3-fluoropropoxy)pyrazine-6-yl]-6-methoxybenzothiophene], the inhibition constant Ki in data set [1] is 0.45 nM. For `CN(C)c1ccc(-c2cc3ccc(OCCF)cc3s2)cn1` [Example 23, 2-[2-(N,N-dimethylamino)pyridine-5-yl]-6-(2-fluoroethoxy)benzothiophene], in data set [1], the inhibition constant Ki came out at 0.72 nM.

In the case of `Nc1ccc(-c2cc3ccc(OCCCF)cc3s2)cc1` [Example 10, 2-(4-aminophenyl)-6-(3-fluoropropoxy)benzothiophene], the melting point lay in the range of 119.6 to 123.2 °C. Moreover, the inhibition constant (Ki) in data set [1] came to 0.64 nM. The molecule `CNc1ccc(-c2cc3ccc(OCCF)cc3s2)cc1` [Example 12, 2-[4-(N-monomethylamino)phenyl]-6-(2-fluoroethoxy)benzothiophene] displayed a melting point of 156.9 to 159.7 °C. Besides, the Ki in data set [1] was found to be 0.064 nM.
